Laboratory results published in patent US10604511B2, “N-[(pyrazinyloxy)propanyl]benzamides as antagonists of orexin subtype 1 receptor activity” (Boehringer Ingelheim International GmbH, priority 2016, dated 2020).
Where two headings read alike, the source gives them in different places.

Tests used:
[1] = target: T1, human Orexin 1 receptor (Homo sapiens, UniProt O43613); experiment: Assay A: in vitro testing of OX1R potency, OX1R IP1; format: cell-based; conditions: Table 3, read-out: Assay A OX1R Kb [nM] (Orexin A concentration)
T1 construct: stably expressing the full-length human Orexin 1 receptor; expressed in transfected cells; host or cells: CHO-K1 (CHO-K1/hOx1)
T1 sequence (O43613 1-425): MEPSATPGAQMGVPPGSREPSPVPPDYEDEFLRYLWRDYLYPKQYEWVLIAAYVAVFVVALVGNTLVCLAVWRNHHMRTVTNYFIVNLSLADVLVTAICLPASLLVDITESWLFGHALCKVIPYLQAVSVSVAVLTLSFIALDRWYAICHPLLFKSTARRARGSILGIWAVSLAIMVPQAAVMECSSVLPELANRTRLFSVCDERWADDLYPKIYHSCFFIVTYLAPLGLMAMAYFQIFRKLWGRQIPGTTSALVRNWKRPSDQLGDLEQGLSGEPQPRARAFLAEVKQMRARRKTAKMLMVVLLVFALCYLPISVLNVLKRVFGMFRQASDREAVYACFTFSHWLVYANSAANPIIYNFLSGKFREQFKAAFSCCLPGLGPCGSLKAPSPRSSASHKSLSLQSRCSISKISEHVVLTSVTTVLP
Source text: Chem. Genomics 2009, 3, 22-32. […] AssayExplorer (Accelrys). […] Sci. 1993, 14(4), 110-112).

[2] = target: T2, OX2R (Homo sapiens, UniProt O43614); experiment: OX2R in vitro potency as reported in WO2016/034882; format: cell-based; conditions: Table 1 of WO2016/034882
T2 sequence (O43614 1-444): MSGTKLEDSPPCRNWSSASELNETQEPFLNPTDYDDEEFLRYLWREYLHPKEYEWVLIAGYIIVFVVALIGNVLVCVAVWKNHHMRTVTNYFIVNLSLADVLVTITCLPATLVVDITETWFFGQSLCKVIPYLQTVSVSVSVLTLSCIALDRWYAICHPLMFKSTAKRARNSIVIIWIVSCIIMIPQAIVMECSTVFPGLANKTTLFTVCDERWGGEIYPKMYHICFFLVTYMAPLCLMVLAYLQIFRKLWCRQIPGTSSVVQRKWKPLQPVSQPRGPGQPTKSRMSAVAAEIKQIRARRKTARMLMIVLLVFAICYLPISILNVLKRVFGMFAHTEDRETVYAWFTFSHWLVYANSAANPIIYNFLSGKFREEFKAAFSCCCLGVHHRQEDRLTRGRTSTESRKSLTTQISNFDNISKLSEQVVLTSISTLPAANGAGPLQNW

[3] = Assay C: metabolic stability in human liver microsomes (human MST); format: in vitro ADME; conditions: for half-life at 1 μM: pH 7.6, pooled human liver microsomes, 1 μM test compound, 37° C., read-out: Assay C: Human MST t1/2; for stability in human liver microsomes compared with closest prior art compounds in WO2016/034882 (in words): versus closest prior art examples of WO2016/034882
Protocol: C. Assessment of Metabolic Stability in Human Liver Microsomes (Human MST) The metabolic stability of the compounds according to the invention may be investigated as follows: The metabolic degradation of the test compound is assayed at 37° C. with pooled human liver microsomes. The final incubation volume of 100 μL per time point contains TRIS buffer pH 7.6 at room temperature (0.1 M), MgCl2 (5 mM), microsomal protein (1 mg/mL) and the test compound at a final concentration of 1 μM. Following a short pre-incubation period at 37° C., the reactions are initiated by addition of beta-nicotinamide adenine dinucleotide phosphate, reduced form (NADPH, 1 mM), and terminated by transferring an aliquot into solvent after different time points. After centrifugation (10000 g, 5 min), an aliquot of the supernatant is assayed by LC-MS/MS for the amount of parent compound. The half-life (t1/2) is determined by the slope of the semi-logarithmic plot of the concentration-time profile.

[4] = target: T2, OX2R; conditions: Table 3 of WO2016/034882, cited from earlier work

| Kb ([1]; 0.5 nM Orexin A) [nM] | OX2R IC50/OX1R IC50 [2] | Kb ([1]; 50 nM Orexin A) [nM] | half-life at 1 μM [3] [h] | stability in human liver microsomes compared with closest prior art compounds in WO2016/034882 (in words) [3] | Structure (SMILES) | OX2R pIC50 [4] | IC50 ([4]; read-out: OX2R IC50 (corresponds to pIC50) (converted)) [nM] |
| --- | --- | --- | --- | --- | --- | --- | --- |
| 0.73 | Table 1: 156 | – | – | – | CC[C@@H](CNc1cnc(C(F)(F)F)cn1)N(C)C(=O)c1cc(Cl)ccc1-n1nccn1 [Ex 40 in WO2016/ 034882, reference compound] | – | – |
| – | – | 0.14 | 0.333 | – | CC[C@@H](CNc1cnc(C(F)(F)F)cn1)N(CC)C(=O)c1nc(C)ccc1-n1nccn1 [Ex 70 in WO2016/ 034882] | 5.3 | > 5000 |
| 0.97 | – | – | > 2.17 | – | CCN(C(=O)c1ccccc1-n1nccn1)[C@@H](C)COc1cnc(C(F)(F)F)cn1 [Example 1] | – | – |
| 4.5 | – | – | > 2.17 | – | CCN(C(=O)c1ccc(F)cc1-n1nccn1)[C@@H](C)COc1cnc(C(F)(F)F)cn1 [Example 2] | – | – |
| 2.1 | – | – | > 2.17 | – | CCN(C(=O)c1cc(F)ccc1-n1nccn1)[C@@H](C)COc1cnc(C(F)(F)F)cn1 [Example 3] | – | – |
| 5.5 | – | – | > 2.17 | – | CCN(C(=O)c1cc(F)c(F)cc1-n1nccn1)[C@@H](C)COc1cnc(C(F)(F)F)cn1 [Example 4] | – | – |
| 3 | – | – | > 2.17 | – | CCN(C(=O)c1cc(F)cc(F)c1-n1nccn1)[C@@H](C)COc1cnc(C(F)(F)F)cn1 [Example 6] | – | – |
| 13 | – | – | > 2.17 | – | CCN(C(=O)c1cc(C(F)(F)F)ccc1-n1nccn1)[C@@H](C)COc1cnc(C(F)(F)F)cn1 [Example 7] | – | – |
| – | – | 0.8 | 1.22 | – | CCN(C(=O)c1cc(OC)ccc1-n1nccn1)[C@@H](C)COc1cnc(C(F)(F)F)cn1 [Example 8] | – | – |
| 5.4 | – | – | 0.417 | – | CCN(C(=O)c1ccccc1-n1cccn1)[C@@H](C)COc1cnc(C(F)(F)F)cn1 [Example 9] | – | – |
| – | – | 0.44 | 1.33 | markedly improved stability | CCN(C(=O)c1ccc(C)cc1-n1nccn1)[C@@H](C)COc1cnc(C(F)(F)F)cn1 [Example 10] | – | – |
| 12 | – | – | > 2.17 | – | CCN(C(=O)c1cccc(F)c1-c1nnc(C)o1)[C@@H](C)COc1cnc(C(F)(F)F)cn1 [Example 12] | – | – |
| 4.6 | – | – | 1.48 | – | CCN(C(=O)c1ccc(C)cc1-c1nnc(C)o1)[C@@H](C)COc1cnc(C(F)(F)F)cn1 [Example 14] | – | – |
| 1.3 | – | 2.3 | 1.52 | – | CCN(C(=O)c1cccc(C)c1-c1nnc(C)o1)[C@@H](C)COc1cnc(C(F)(F)F)cn1 [Example 15] | – | – |
| 1.7 | – | 1.8 | 1.18 | – | CCN(C(=O)c1ccc(OC)cc1-n1nccn1)[C@@H](C)COc1cnc(C(F)(F)F)cn1 [Example 18] | – | – |
| 2.1 | – | 2.1 | > 2.17 | – | CCN(C(=O)c1cccc(F)c1-n1nccn1)[C@@H](C)COc1cnc(C(F)(F)F)cn1 [Example 22] | – | – |
| 1.1 | – | 1 | 1.52 | – | CCN(C(=O)c1ccc(Cl)cc1-n1nccn1)[C@@H](C)COc1cnc(C(F)(F)F)cn1 [Example 24] | – | – |
| 12 | – | – | 0.383 | – | CCN(C(=O)c1ccc(C(F)(F)F)cc1-n1nccn1)[C@@H](C)COc1cnc(C(F)(F)F)cn1 [Example 25] | – | – |
| 1 | – | – | > 2.17 | markedly improved stability | CCN(C(=O)c1ccc(F)cc1-c1ncccn1)[C@@H](C)COc1cnc(C(F)(F)F)cn1 [Example 27] | – | – |
| 3.9 | – | – | 0.65 | – | CCN(C(=O)c1ccccc1-c1nc(C)no1)[C@@H](C)COc1cnc(C(F)(F)F)cn1 [Example 28] | – | – |
| 0.64 | – | 0.51 | > 2.17 | markedly improved stability | CCN(C(=O)c1cccc(F)c1-c1ncccn1)[C@@H](C)COc1cnc(C(F)(F)F)cn1 [Example 29] | – | – |
| 0.55 | – | 0.63 | > 2.17 | markedly improved stability | CCN(C(=O)c1ccccc1-c1ncccn1)[C@@H](C)COc1cnc(C(F)(F)F)cn1 [Example 30] | – | – |
| 2.1 | – | – | 1.1 | – | CCN(C(=O)c1ccccc1-c1noc(C)n1)[C@@H](C)COc1cnc(C(F)(F)F)cn1 [Example 32] | – | – |
| 2.5 | – | – | > 2.17 | – | CCN(C(=O)c1ccc(F)c(F)c1-n1nccn1)[C@@H](C)COc1cnc(C(F)(F)F)cn1 [Example 33] | – | – |
